Laboratory results taken from ChEMBL document CHEMBL1138037, “Novel sst2-selective somatostatin agonists. Three-dimensional consensus structure by NMR” (J Med Chem, 2006).
Positions of bridges follow the written chain, without caps; N, C: chain ends. Non-standard residues stand in square brackets, D forms with d. Residues, ends and D or L forms follow the SMILES beside them.

Experiments:
[1] = target: Somatostatin receptor type 3 (Homo sapiens, UniProt P32745); test: Inhibition of [125I](Leu8,DTrp22,Tyr25)-SRIF28 binding to human sst3
[2] = target: Somatostatin receptor type 5 (Homo sapiens, UniProt P35346); test: Inhibition of [125I](Leu8,DTrp22,Tyr25)-SRIF28 binding to human sst5
[3] = target: Somatostatin receptor type 1 (Homo sapiens, UniProt P30872); test: Inhibition of [125I](Leu8,DTrp22,Tyr25)-SRIF28 binding to human sst1
[4] = target: Somatostatin receptor type 2 (Homo sapiens, UniProt P30874); test: Inhibition of [125I](Leu8,DTrp22,Tyr25)-SRIF28 binding to human sst2
[5] = target: Somatostatin receptor type 4 (Homo sapiens, UniProt P31391); test: Inhibition of [125I](Leu8,DTrp22,Tyr25)-SRIF28 binding to human sst4
Chain of Somatostatin receptor type 4 (P31391 whole entry): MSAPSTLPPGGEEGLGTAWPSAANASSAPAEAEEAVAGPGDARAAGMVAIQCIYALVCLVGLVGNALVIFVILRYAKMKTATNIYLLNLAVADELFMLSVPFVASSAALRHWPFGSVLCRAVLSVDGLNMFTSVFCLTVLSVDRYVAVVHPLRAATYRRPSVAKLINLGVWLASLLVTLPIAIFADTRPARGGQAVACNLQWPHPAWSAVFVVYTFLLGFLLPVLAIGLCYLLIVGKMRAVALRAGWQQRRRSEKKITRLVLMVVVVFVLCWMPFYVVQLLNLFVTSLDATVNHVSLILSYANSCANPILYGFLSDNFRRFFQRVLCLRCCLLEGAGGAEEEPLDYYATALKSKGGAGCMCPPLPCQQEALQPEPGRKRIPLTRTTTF

Chain of Somatostatin receptor type 3 (P32745 whole entry): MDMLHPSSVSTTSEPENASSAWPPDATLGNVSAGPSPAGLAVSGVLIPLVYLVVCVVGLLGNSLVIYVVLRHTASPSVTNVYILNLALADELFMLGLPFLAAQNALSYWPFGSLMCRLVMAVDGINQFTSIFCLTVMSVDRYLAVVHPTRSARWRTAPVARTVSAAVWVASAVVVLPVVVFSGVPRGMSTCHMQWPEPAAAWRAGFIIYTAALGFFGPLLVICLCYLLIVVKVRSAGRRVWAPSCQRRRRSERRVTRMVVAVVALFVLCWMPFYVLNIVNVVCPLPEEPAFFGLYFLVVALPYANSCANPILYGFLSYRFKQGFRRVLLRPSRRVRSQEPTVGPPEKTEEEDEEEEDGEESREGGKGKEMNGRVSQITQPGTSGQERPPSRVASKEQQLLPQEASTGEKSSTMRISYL
Chain of Somatostatin receptor type 2 (P30874 whole entry): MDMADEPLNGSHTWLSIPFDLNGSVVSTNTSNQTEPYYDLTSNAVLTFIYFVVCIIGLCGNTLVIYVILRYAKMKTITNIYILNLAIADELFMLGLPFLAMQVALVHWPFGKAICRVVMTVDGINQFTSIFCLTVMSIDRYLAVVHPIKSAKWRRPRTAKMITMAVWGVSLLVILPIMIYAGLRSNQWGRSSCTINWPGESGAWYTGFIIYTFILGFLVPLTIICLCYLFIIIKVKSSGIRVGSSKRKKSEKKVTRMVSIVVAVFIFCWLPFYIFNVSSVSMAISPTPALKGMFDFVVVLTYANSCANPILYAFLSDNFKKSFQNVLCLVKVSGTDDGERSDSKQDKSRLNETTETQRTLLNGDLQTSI
Chain of Somatostatin receptor type 5 (P35346 whole entry): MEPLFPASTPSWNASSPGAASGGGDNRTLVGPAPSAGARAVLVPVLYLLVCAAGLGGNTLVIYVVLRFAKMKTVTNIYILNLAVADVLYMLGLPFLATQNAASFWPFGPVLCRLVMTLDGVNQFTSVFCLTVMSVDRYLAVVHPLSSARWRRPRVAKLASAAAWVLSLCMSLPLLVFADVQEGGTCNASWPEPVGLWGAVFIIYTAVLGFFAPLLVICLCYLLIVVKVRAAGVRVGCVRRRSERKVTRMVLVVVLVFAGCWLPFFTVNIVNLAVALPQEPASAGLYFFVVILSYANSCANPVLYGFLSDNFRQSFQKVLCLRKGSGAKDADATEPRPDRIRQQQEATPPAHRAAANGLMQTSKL
Chain of Somatostatin receptor type 1 (P30872 whole entry): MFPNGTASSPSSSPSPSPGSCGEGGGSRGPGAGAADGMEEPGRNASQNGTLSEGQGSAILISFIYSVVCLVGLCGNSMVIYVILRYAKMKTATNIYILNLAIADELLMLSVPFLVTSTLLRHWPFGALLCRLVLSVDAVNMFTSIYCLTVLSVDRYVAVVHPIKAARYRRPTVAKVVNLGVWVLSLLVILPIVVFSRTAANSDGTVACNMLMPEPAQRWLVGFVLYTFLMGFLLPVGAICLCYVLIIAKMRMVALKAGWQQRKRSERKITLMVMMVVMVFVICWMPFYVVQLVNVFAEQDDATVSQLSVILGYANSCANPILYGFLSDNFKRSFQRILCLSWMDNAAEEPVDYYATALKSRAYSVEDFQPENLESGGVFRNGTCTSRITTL

| SMILES | IC50 [1] [nM] | IC50 [2] [nM] | IC50 [3] [nM] | IC50 [4] [nM] | IC50 [5] [nM] |
| --- | --- | --- | --- | --- | --- |
| C[C@@H](O)[C@H](NC(=O)[C@@H]1CSSC[C@H](NC(=O)[C@H](N)Cc2ccccc2)C(=O)N[C@@H](Cc2ccccc2)C(=O)N[C@H](Cc2c[nH]c3ccccc23)C(=O)N[C@@H](CCCCN)C(=O)N[C@@H]([C@@H](C)O)C(=O)N1)C(N)=O | 38 |  | > 1000 | 2.2 | > 10000 |
| C[C@@H]1NC(=O)[C@@H](NC(=O)[C@H](N)Cc2ccccc2)CSSC[C@@H](C(=O)N[C@H](C(N)=O)[C@@H](C)O)NC(=O)[C@H]([C@@H](C)O)NC(=O)[C@H](CCCCN)NC(=O)[C@@H](Cc2c[nH]c3ccccc23)NC1=O | 543 | 158 | > 1000 | 3.6 | > 1000 |
| CONC(=O)Nc1ccc(C[C@@H]2NC(=O)[C@@H](NC(=O)[C@@H](Cc3ccccc3)NC(N)=O)CSSC[C@@H](C(=O)N[C@H](C(N)=O)[C@@H](C)O)NC(=O)[C@H]([C@@H](C)O)NC(=O)[C@H](CCCCN)NC(=O)[C@@H](Cc3c[nH]c4ccccc34)NC2=O)cc1 | 958 | 539 | > 1000 | 3.1 | > 1000 |
| C[C@@H](O)[C@@H]1NC(=O)[C@H](CCCCN)NC(=O)[C@@H](Cc2c[nH]c3ccccc23)NC(=O)[C@H](Cc2ccccc2)NC(=O)[C@@H](N)CSSC[C@@H](C(=O)O)NC1=O (H-CF[dW]KTC-OH; disulfide 1-6) | > 1000 | > 1000 | > 1000 | 378 | > 1000 |

Further lines, results first:

| IC50 [1] [nM] | IC50 [2] [nM] | IC50 [3] [nM] | IC50 [4] [nM] | IC50 [5] [nM] | SMILES |
| --- | --- | --- | --- | --- | --- |
| 210 | 77 | > 1000 | 6.2 |  | C[C@@H](O)[C@H](NC(=O)[C@@H]1CSSC[C@H](NC(=O)[C@@H](Cc2ccccc2)NC(N)=O)C(=O)N[C@@H](Cc2ccc(NC(N)=O)cc2)C(=O)N[C@H](Cc2c[nH]c3ccccc23)C(=O)N[C@@H](CCCCN)C(=O)N[C@@H]([C@@H](C)O)C(=O)N1)C(N)=O |
| 942 | 109 | > 1000 | 7.5 |  | C[C@@H](O)[C@H](NC(=O)[C@@H]1CSSC[C@H](NC(=O)[C@H](Cc2ccccc2)NC(N)=O)C(=O)N[C@@H](Cc2ccc(NC(N)=O)cc2)C(=O)N[C@H](Cc2c[nH]c3ccccc23)C(=O)N[C@@H](CCCCN)C(=O)N[C@@H]([C@@H](C)O)C(=O)N1)C(N)=O |
